Values after ≈ are worked out from the molar mass of the structure shown. Active and inactive are the calls of the source. No cut-off for these calls is given here.
How the values were obtained:
Pseudomonas aeruginosa = assay: Antibacterial activity against Pseudomonas aeruginosa ATCC 27853 assessed as bacterial growth inhibition incubated for 18 hrs by micro-dilution broth method; assay type: functional
Escherichia coli = assay: Antibacterial activity against Escherichia coli CCUG assessed as bacterial growth inhibition incubated for 18 hrs by micro-dilution broth method; assay type: functional
Enterococcus faecalis = assay: Antibacterial activity against Enterococcus faecalis ATCC 19433 assessed as bacterial growth inhibition incubated for 18 hrs by micro-dilution broth method; assay type: functional
Streptococcus pyogenes = assay: Antibacterial activity against Streptococcus pyogenes ATCC 12344 assessed as bacterial growth inhibition incubated for 18 hrs by micro-dilution broth method; assay type: functional
Klebsiella pneumoniae [1] = assay: Antibacterial activity against Klebsiella pneumoniae ATCC 13833 assessed as bacterial growth inhibition incubated for 18 hrs by micro-dilution broth method; assay type: functional
Bacillus subtilis = assay: Antibacterial activity against Bacillus subtilis ATCC 6633 assessed as bacterial growth inhibition incubated for 18 hrs by CLSI based micro-dilution broth method; assay type: functional
Acinetobacter baumannii [2] = assay: Antibacterial activity against Acinetobacter baumannii ATCC 17978 assessed as bacterial growth inhibition incubated for 18 hrs by micro-dilution broth method; assay type: functional
Staphylococcus aureus = assay: Antibacterial activity against Staphylococcus aureus ATCC 25923 assessed as bacterial growth inhibition incubated for 18 hrs by micro-dilution broth method; assay type: functional
Enterobacter cloacae = assay: Antibacterial activity against Enterobacter cloacae VA-417/02 assessed as bacterial growth inhibition incubated for 18 hrs by CLSI based micro-dilution broth method; assay type: functional
Acinetobacter baumannii [3] = assay: Antibacterial activity against Acinetobacter baumannii AC-54/97 assessed as bacterial growth inhibition incubated for 18 hrs by CLSI based micro-dilution broth method; assay type: functional
Klebsiella pneumoniae [4] = assay: Antibacterial activity against pan drug-resistant Klebsiella pneumoniae S1-081Rb assessed as bacterial growth inhibition incubated for 18 hrs by CLSI based micro-dilution broth method; assay type: functional
Lipid bilayer [5] = assay: Binding affinity to bacterial membrane mimic POPG large unilamellar vesicle assessed as bathochromic shift at 125 uM measured at t = 0 by UV-Vis spectrophotometric analysis
Lipid bilayer [6] = assay: Binding affinity to bacterial membrane mimic POPG large unilamellar vesicle assessed as hyperchromic shift at 125 uM measured after 1 hr by UV-Vis spectrophotometric analysis

Row | Compound | MIC (Pseudomonas aeruginosa) [µg/mL] | MIC (Escherichia coli) [µg/mL] | MIC (Enterococcus faecalis) [µg/mL] | MIC (Streptococcus pyogenes) [µg/mL] | MIC (Klebsiella pneumoniae [1]) [µg/mL] | MIC (Bacillus subtilis) [µg/mL] | MIC (Acinetobacter baumannii [2]) [µg/mL] | MIC (Staphylococcus aureus) [µg/mL] | MBC (Enterobacter cloacae) [µg/mL] | MIC (Enterobacter cloacae) [µg/mL] | MBC (Acinetobacter baumannii [3]) [µg/mL] | MIC (Acinetobacter baumannii [3]) [µg/mL] | MBC (Klebsiella pneumoniae [4]) [µg/mL] | MIC (Klebsiella pneumoniae [4]) [µg/mL] | Activity (Lipid bilayer [5]) | Activity (Lipid bilayer [6])
1 | NCCCCCCCCN(CCCCCCCCN)C(=O)N(CCCCCCCCN)CCCCCCCCN | 32 (≈ 56.2 µM) | 32 (≈ 56.2 µM) | 16 (≈ 28.1 µM) | 4 (≈ 7.03 µM) | 16 (≈ 28.1 µM) | 4 (≈ 7.03 µM) | 16 (≈ 28.1 µM) | 8 (≈ 14.1 µM) |  |  |  |  |  |  |  | 
2 | CN[C@H](CC(C)C)C(=O)N[C@H]1C(=O)N[C@@H](CC(N)=O)C(=O)N[C@H]2C(=O)N[C@H]3C(=O)N[C@H](C(=O)N[C@H](C(=O)O)c4cc(O)cc(O)c4-c4cc3ccc4O)[C@H](O)c3ccc(c(Cl)c3)Oc3cc2cc(c3O[C@@H]2O[C@H](CO)[C@@H](O)[C@H](O)[C@H]2O[C@H]2C[C@](C)(N)[C@H](O)[C@H](C)O2)Oc2ccc(cc2Cl)[C@H]1O [VANCOMYCIN] |  |  | 1 (≈ 0.69 µM) | 1 (≈ 0.69 µM) |  | 0.5 (≈ 0.345 µM) |  |  |  |  |  |  |  |  |  | 
3 | CCCCCCCCN(CCCCCCCC)C(=O)N(CCCCCCCC)CCCCCCCCNC(=N)NCC1CC1.O=C(O)C(F)(F)F | > 128 | > 128 | 128 | 16 | > 128 | 64 | > 128 | > 128 |  |  |  |  |  |  |  | 
4 | CCCCCCCCCC(=O)N[C@@H](Cc1c[nH]c2ccccc12)C(=O)N[C@H](CC(N)=O)C(=O)N[C@@H](CC(=O)O)C(=O)N[C@@H]1C(=O)NCC(=O)N[C@@H](CCCN)C(=O)N[C@@H](CC(=O)O)C(=O)N[C@H](C)C(=O)N[C@@H](CC(=O)O)C(=O)NCC(=O)N[C@H](CO)C(=O)N[C@@H]([C@H](C)CC(=O)O)C(=O)N[C@@H](CC(=O)c2ccccc2N)C(=O)O[C@@H]1C |  |  | 1 (≈ 0.617 µM) | 0.5 (≈ 0.309 µM) |  | 1 (≈ 0.617 µM) |  | 0.12 (≈ 0.074 µM) |  |  |  |  |  |  |  | 
5 | COLISTIN | 0.5 | 0.5 |  |  | 0.5 |  | 1 |  |  |  |  |  |  |  |  | 
6 | N=C(N)NCCCCCCCCN(CCCCCCCCNC(=N)N)C(=O)N(CCCCCCCCN)CCCCCCCCN | 32 (≈ 49 µM) | 2 (≈ 3.06 µM) | 8 (≈ 12.2 µM) | 0.25 (≈ 0.383 µM) | 16 (≈ 24.5 µM) | 0.5 (≈ 0.766 µM) | 16 (≈ 24.5 µM) | 0.5 (≈ 0.766 µM) |  |  |  |  |  |  |  | 
7 | CCCCCCCCN(CCCCCCCC)C(=O)N(CCCCCCCC)CCCCCCCC | > 128 | > 128 | > 128 | > 128 | > 128 | > 128 | > 128 | > 128 |  |  |  |  |  |  |  | 
8 | N=C(N)NCCCCCCCCN(CCCCCCCCNC(=N)N)C(=O)N(CCCCCCCCNC(=N)N)CCCCCCCCNC(=N)NCC1CC1.O=C(O)C(F)(F)F | 16 | 8 | 2 | 1 | 4 | 2 | 8 | 2 | 8 | 8 | 16 | 8 | 16 | 8 |  | 
9 | CCCCCCCCN(CCCCCCCCNC(=N)NCC1CC1)C(=O)N(CCCCCCCCNC(=N)NCC1CC1)CCCCCCCCNC(=N)NCC1CC1 | 8 (≈ 9.5 µM) | 4 (≈ 4.75 µM) | 2 (≈ 2.37 µM) | 1 (≈ 1.19 µM) | 4 (≈ 4.75 µM) | 2 (≈ 2.37 µM) | 4 (≈ 4.75 µM) | 16 (≈ 19 µM) |  |  |  |  |  |  | Active | Active
10 | N=C(N)NCCCCCCCCN(CCCCCCCCN)C(=O)N(CCCCCCCCN)CCCCCCCCN | 128 (≈ 209 µM) | 32 (≈ 52.4 µM) | 32 (≈ 52.4 µM) | 16 (≈ 26.2 µM) | 64 (≈ 105 µM) | 4 (≈ 6.55 µM) | 64 (≈ 105 µM) | 2 (≈ 3.27 µM) |  |  |  |  |  |  | Active | Active
11 | CCCCCCCCN(CCCCCCCCNC(=N)NCC1CC1)C(=O)N(CCCCCCCC)CCCCCCCCNC(=N)NCC1CC1.O=C(O)C(F)(F)F | > 128 | > 128 | 32 | 8 | 128 | 128 | > 128 | > 128 |  |  |  |  |  |  |  | 
12 | CCCCCCCCN(CCCCCCCC)C(=O)N(CCCCCCCCNC(=N)NCC1CC1)CCCCCCCCNC(=N)NCC1CC1.O=C(O)C(F)(F)F | > 128 | 128 | 128 | 4 | 64 | 128 | 128 | > 128 |  |  |  |  |  |  |  | 
13 | CCCCCCCCN(CCCCCCNC(=N)NCC1CC1)C(=O)N(CCCCCCCCNC(=N)NCC1CC1)CCCCCCCCNC(=N)NCC1CC1 | 8 (≈ 9.82 µM) | 2 (≈ 2.46 µM) | 2 (≈ 2.46 µM) | 1 (≈ 1.23 µM) | 2 (≈ 2.46 µM) | 2 (≈ 2.46 µM) | 4 (≈ 4.91 µM) | 1 (≈ 1.23 µM) |  |  |  |  |  |  |  | 
14 | N=C(N)NCCCCCCN(CCCCCCN)C(=O)N(CCCCCCN)CCCCCCNC(=N)N | > 128 | > 128 | > 128 | 128 (≈ 237 µM) | > 128 | 32 (≈ 59.2 µM) | > 128 | 128 (≈ 237 µM) |  |  |  |  |  |  |  | 
15 | CNC(=O)NCCCCCCCCNC(=N)NCC1CC1.O=C(O)C(F)(F)F | > 128 | 128 | 64 | 128 | 128 | 64 | > 128 | 32 |  |  |  |  |  |  |  | 
16 | N=C(NCCCCCCCCNC(=O)NCCCCCCCCNC(=N)NCC1CC1)NCC1CC1 | > 128 | 64 (≈ 126 µM) | 64 (≈ 126 µM) | 8 (≈ 15.8 µM) | > 128 | > 128 |  | 128 (≈ 253 µM) |  |  |  |  |  |  |  | 
17 | CCCCCCN(CCCCCCCCNC(=N)NCC1CC1)C(=O)N(CCCCCCCCNC(=N)NCC1CC1)CCCCCCCCNC(=N)NCC1CC1 | 16 (≈ 19.6 µM) | 4 (≈ 4.91 µM) | 1 (≈ 1.23 µM) | 1 (≈ 1.23 µM) | 8 (≈ 9.82 µM) | 2 (≈ 2.46 µM) | 8 (≈ 9.82 µM) | 2 (≈ 2.46 µM) |  |  |  |  |  |  |  | 
18 | N=C(NCCCCCCCCNC(=O)N(CCCCCCCCNC(=N)NCC1CC1)CCCCCCCCNC(=N)NCC1CC1)NCC1CC1.O=C(O)C(F)(F)F | 64 | 8 | 8 | 1 | 8 | 1 | 64 | 4 |  |  |  |  |  |  | Active | Active
19 | CCCCCCN(CCCCCCNC(=N)NCC1CC1)C(=O)N(CCCCCCCCNC(=N)NCC1CC1)CCCCCCNC(=N)NCC1CC1 | 64 (≈ 84.4 µM) | 4 (≈ 5.28 µM) | 2 (≈ 2.64 µM) | 1 (≈ 1.32 µM) | 8 (≈ 10.6 µM) | 1 (≈ 1.32 µM) | 32 (≈ 42.2 µM) | 2 (≈ 2.64 µM) |  |  |  |  |  |  |  | 
20 | N=C(N)NCCCCCCCCN(CCCCCCCCN)C(=O)N(CCCCCCCCNC(=N)N)CCCCCCCCNC(=N)N | 16 (≈ 23 µM) | 2 (≈ 2.88 µM) | 4 (≈ 5.75 µM) | 0.25 (≈ 0.36 µM) | 8 (≈ 11.5 µM) | 1 (≈ 1.44 µM) | 16 (≈ 23 µM) | 1 (≈ 1.44 µM) | 8 (≈ 11.5 µM) | 8 (≈ 11.5 µM) | 8 (≈ 11.5 µM) | 8 (≈ 11.5 µM) | 16 (≈ 23 µM) | 16 (≈ 23 µM) | Active | Active
21 | N=C(NCCCCCCCCN(CCCCCCCCNC(=N)NCC1CC1)C(N)=O)NCC1CC1.O=C(O)C(F)(F)F | 128 | 32 | 16 | 2 | 32 | 8 | 128 | 16 |  |  |  |  |  |  |  | 
22 | CNC(=O)N(CCCCCCCCNC(=N)NCC1CC1)CCCCCCCCNC(=N)NCC1CC1 | > 128 | 128 (≈ 246 µM) | 64 (≈ 123 µM) | 8 (≈ 15.4 µM) | 128 (≈ 246 µM) | 32 (≈ 61.4 µM) | > 128 | 128 (≈ 246 µM) |  |  |  |  |  |  |  | 

Source: ChEMBL document CHEMBL5154741, “Antibacterial alkylguanidino ureas: Molecular simplification approach, searching for membrane-based MoA” (Eur J Med Chem, 2022)
